From PMC6270288, “Yellow Pigments, Fomitellanols A and B, and Drimane Sesquiterpenoids, Cryptoporic Acids P and Q, from Fomitella fraxinea and Their Inhibitory Activity against COX and 5-LO” (Molecules, 2013)

Assays:
5-LO = target: T1, 5-LO (Rattus norvegicus, UniProt P12527); test: Measurement of RBL-1 5-lipoxygenase activity; type: biochemical; details: RBL-1 cell homogenate; for IC50: triplicate five-point titration; for inhibition at 10 µg/mL: 10 μg/mL
T1 construct: RBL-1 cell homogenate (1.5 × 10^7 cells); endogenous in cells; host or cells: RBL-1 (rat basophilic leukemia-1) cell homogenate
T1 sequence (P12527 1-673): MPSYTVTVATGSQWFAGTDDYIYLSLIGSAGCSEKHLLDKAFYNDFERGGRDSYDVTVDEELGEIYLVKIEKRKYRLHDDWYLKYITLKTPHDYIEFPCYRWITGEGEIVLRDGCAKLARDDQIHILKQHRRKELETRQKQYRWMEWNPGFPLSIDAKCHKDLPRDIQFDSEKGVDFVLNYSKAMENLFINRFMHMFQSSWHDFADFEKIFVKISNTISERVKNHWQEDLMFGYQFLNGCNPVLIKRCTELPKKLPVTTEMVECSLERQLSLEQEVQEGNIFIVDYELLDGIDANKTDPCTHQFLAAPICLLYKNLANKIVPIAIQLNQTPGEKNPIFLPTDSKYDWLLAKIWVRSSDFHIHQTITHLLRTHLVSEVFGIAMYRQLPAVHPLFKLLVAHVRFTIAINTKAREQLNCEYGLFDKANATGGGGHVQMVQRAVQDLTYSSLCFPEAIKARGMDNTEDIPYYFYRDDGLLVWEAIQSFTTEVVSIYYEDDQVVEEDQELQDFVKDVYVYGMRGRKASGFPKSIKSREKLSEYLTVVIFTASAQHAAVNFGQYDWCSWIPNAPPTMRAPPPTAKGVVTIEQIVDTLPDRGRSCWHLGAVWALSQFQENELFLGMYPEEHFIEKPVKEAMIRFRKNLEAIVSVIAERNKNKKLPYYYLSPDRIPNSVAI
Description: The modified method of Blackman et al. was used. Rat basophilic leukemia-1 (RBL-1) cells were grown in RPMI-1640 medium containing 10% heat-inactivated newborn calf serum (NCS), penicillin 100 units/mL, and streptomycin […]. Cells were cultured at 37 °C in 5% CO2. The assay system (0.5 mL) consisted of 50 mM phosphate buffer (pH 7.4), the test compound, 2 mM CaCl2, 0.66 mM arachidonic acid, and RBL-1 cell homogenate (1.5 × 10^7 cells). Reaction mixtures were incubated at 37 °C for 3 min, and then MeOH (0.5 mL) was added to terminate the reaction. The mixture was centrifuged to remove the precipitated proteins, 5-HETE in the supernatant was analyzed by HPLC. The mixture was eluted through a Cosmosil 5C18 column (4.6 × 150 mm) at room temperature with 85% CH3CN at 235 nm.

COX-2 = target: T2, COX-2 (Ovis aries, UniProt P79208); test: COX-2-catalyzed prostaglandin biosynthesis assay in vitro; type: biochemical, sheep; details: for inhibition at 10 µg/mL: 10 μg/mL, COX-2 from sheep placenta
T2 construct: isolated from sheep placenta, purity 70%; purchased Cayman Chemical Company; host or cells: sheep placenta (tissue isolate)
T2 sequence (P79208 17-603): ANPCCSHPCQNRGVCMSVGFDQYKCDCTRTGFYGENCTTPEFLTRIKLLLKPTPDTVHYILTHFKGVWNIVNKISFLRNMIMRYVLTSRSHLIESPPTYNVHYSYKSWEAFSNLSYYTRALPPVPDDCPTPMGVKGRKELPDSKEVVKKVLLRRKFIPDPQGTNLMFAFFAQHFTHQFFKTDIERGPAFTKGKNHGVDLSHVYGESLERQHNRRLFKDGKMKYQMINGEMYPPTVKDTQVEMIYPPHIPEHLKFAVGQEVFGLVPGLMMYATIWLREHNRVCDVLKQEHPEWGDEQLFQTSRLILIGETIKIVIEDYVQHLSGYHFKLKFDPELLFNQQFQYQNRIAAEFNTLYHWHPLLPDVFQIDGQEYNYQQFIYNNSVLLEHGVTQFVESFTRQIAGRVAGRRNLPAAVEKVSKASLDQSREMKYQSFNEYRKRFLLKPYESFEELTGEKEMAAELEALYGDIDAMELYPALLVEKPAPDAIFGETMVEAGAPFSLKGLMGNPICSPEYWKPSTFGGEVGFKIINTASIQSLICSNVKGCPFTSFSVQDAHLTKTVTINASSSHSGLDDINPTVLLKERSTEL
Description: (§1) Experiments were performed according to Futaki et al. with modification. In brief, 200 U of COX-1 or COX-2 enzyme was suspended in 0.1 M Tris-HCl buffer (PH 7.5) containing hematin (1 μM) and phenol (2 mM), as co-factors. The reaction medium was preincubated with sample for 2 min at 37 °C, and 51.4 μM of […] arachidonic acid (Sigma, St. Louis, MO, USA) was added and incubated for 2 min at 37 °C. To terminate the reaction and extract PGE2, 400 μL of n-hexane/EtOAc (2:1, V/V) was added to the reaction mixture and the preparation was centrifuged at 2,000 rpm for 1 min. The organic solvent phase was discarded. The extraction procedure was repeated twice, then 50 μL EtOH was added to the aqueous phase, and the preparation was at 2,000 rpm for 1 min. The amount of PGE2 was measured by radioimmunoassay using a liquid scintillation counter. COX-1 (EC1.14.99.1, isolated from ram seminal vesicles; Cayman Chemical Company, Ann Arbor, MI, USA) and COX-2 (isolated from sheep placenta, purity 70%; Cayman Chemical Company) were used.

COX-1 = target: T3, COX-1 (Ovis aries, UniProt P05979); test: COX-1-catalyzed prostaglandin biosynthesis assay in vitro; type: biochemical, ram; details: for inhibition at 10 µg/mL: 10 μg/mL, COX-1 from ram seminal vesicles; for IC50: triplicate five-point titration
T3 construct: isolated from ram seminal vesicles; purchased Cayman Chemical Company; host or cells: ram seminal vesicles (tissue isolate)
T3 sequence (P05979 25-600): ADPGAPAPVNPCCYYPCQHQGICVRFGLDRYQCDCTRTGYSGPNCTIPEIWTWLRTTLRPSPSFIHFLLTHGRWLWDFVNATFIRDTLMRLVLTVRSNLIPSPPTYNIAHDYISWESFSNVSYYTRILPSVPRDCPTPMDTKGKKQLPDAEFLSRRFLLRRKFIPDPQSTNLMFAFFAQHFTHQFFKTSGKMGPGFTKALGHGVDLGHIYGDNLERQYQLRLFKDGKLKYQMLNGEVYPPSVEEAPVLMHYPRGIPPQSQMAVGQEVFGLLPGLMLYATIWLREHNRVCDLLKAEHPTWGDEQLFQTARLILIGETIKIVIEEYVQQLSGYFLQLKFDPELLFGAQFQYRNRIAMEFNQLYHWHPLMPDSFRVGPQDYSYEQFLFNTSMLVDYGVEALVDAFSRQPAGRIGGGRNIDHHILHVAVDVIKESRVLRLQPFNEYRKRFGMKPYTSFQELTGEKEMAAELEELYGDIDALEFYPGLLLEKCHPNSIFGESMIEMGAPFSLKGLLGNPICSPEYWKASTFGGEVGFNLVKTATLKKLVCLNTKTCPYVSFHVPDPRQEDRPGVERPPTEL
Description: as §1

Row | Structure (SMILES) | IC50 (5-LO) | inhibitory activities against COX-2 (in words) (COX-2) | inhibition at 10 µg/mL (5-LO) | inhibition at 10 µg/mL (COX-2) | inhibition at 10 µg/mL (COX-1) | IC50 (COX-1)
1 | C=C1CC[C@H]2[C@](C)(COC(C)=O)CCC[C@]2(C)[C@H]1CO[C@@H](C(=O)O)[C@H](CC(=O)O)C(=O)OC [Compound 3, Cryptoporic acid P] |  |  | 14.9% | 1.7% | 40.2% | 
2 | C=C1CC[C@H]2[C@](C)(COC(C)=O)CCC[C@]2(C)[C@H]1CO[C@@H](C(=O)OC)[C@H](CC(=O)O)C(=O)OC [Compound 4, Cryptoporic acid Q] | 204 µM |  | 50.1% | 10.3% | 66.5% | 78.8 µM
3 | C=C1CC[C@H]2[C@](C)(CO)CCC[C@]2(C)[C@H]1CO[C@@H](C(=O)O)[C@H](CC(=O)O)C(=O)OC [Compound 6, cryptoporic acid N] |  |  | 28.9% | 19% | 35.8% | 

Continued, values first:

Row | IC50 (5-LO) | inhibitory activities against COX-2 (in words) (COX-2) | inhibition at 10 µg/mL (5-LO) | inhibition at 10 µg/mL (COX-2) | inhibition at 10 µg/mL (COX-1) | IC50 (COX-1) | Structure (SMILES)
4 | 15.1 µM | not apparent |  |  |  |  | C[C@]12c3c(ccc(O)c3C=C3C(CO)=CC(=O)[C@@H]31)O[C@@H]2O [Compound 1]
5 | 15.1 µM |  | 84.7% | 7.5% | 90.5% | 47.7 µM | CC(C)O[C@H]1Oc2ccc(O)c3c2[C@@]1(C)[C@H]1C(=O)C=C(CO)C1=C3 [Compound 1a, 5-hydroxy-7-hydroxymethyl-1-isopropoxy-9b-methyl-9a,9b-dihydro-H-2-oxa-cyclopenta[d]acenaphthylen-9-one]
